This is an account of results in patent publication US5466691A, “Thiophene compound” (Yoshitomi Pharmaceutical Industries, Ltd., priority 1991, dated 1995).

One data set concerns the target T1, dopamine 2 (D2) receptor (Rattus norvegicus, UniProt P61169).
T1 construct: A synaptosome fraction was separated from corpus striatum; from tissue; host or cells: corpus striatum of Wistar rat, synaptosome fraction
The experiment in a line: Affinity for dopamine 2 receptor ([3H]spiperone binding, synaptosome fraction of corpus striatum). The following applies: tritiated spiperone 0.2 nM, 37° C., 20 minutes, read-out: binding D2, inhibition constant (Ki value). On the set-up: species or system Wistar rat. On the procedure: Experiment Example 1: Affinity for dopamine 2 receptor
A specific binding of dopamine 2 (D2) receptor was tested according to the method described in Eur. J. Pharmacol. 46, 377 (1977).
A synaptosome fraction was separated from corpus striatum of 9-10 weeks old Wistar rat, and suspended in 50 mM Tris-HCl buffer (pH 7.1) containing 120 mM sodium chloride, 5 mM potassium chloride, 2 mM calcium chloride, 1 mM magnesium chloride, 10 μM pargyline and 0.1% ascorbic acid for use in the test.
The test compound at several concentrations and tritiated spiperone (final concentration 0.2 nM) were added to the synaptosome suspension, and each mixture was reacted at 37° C. for 20 minutes. After the reaction, the reaction mixture was filtered with suction through a Whatman GF/B glass filter. The filter was washed with 50 mM Tris-HCl buffer (pH 7.7), and the radioactivity of the filter was measured by a liquid scintillation counter. Non-specific binding was determined in the presence of 10^-4 M(±)-sulpiride. The concentration necessary for 50% inhibition (IC50) was determined on a graph, and inhibition constant (Ki value) was calculated.

Data set [1] has as its target T2, serotonin 1A (5-HT1A) receptor (Rattus norvegicus, UniProt P19327).
T2 construct: A crude synaptosome fraction was separated from hippocampus; from tissue; host or cells: hippocampus of Wistar rat, crude synaptosome fraction
T2 sequence (P19327 1-422): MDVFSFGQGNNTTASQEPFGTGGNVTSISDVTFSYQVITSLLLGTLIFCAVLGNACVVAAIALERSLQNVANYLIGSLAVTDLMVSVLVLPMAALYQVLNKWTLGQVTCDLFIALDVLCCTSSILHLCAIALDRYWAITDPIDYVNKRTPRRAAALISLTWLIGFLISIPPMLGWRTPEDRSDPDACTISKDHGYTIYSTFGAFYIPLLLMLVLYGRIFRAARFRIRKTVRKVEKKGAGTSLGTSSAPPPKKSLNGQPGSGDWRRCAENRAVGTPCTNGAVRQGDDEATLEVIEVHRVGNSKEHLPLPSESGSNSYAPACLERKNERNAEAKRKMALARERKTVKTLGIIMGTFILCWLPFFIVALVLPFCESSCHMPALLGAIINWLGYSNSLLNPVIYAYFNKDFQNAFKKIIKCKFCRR
The experiment in a line: Affinity for serotonin 1A receptor ([3H]8-OH-DPAT binding, crude synaptosome fraction of hippocampus). The following applies: tritiated 8-OH-DPAT 0.2 nM, pH 7.4, 37° C., 12 minutes, read-out: binding 5-HT1A, inhibition constant (Ki value). On the procedure:
Experiment Example 2: Affinity for serotonin 1A receptor
A specific binding of serotonin 1A (5-HT1A) receptor was tested according to the method described in J. Neurochem. 44, 1685 (1985).
A crude synaptosome fraction was separated from hippocampus of 9-10 weeks old Nistar rat, and suspended in 50 mM Tris-HCl buffer (pH 7.4) containing 1 mM manganese chloride for use in the test. The test compound at several concentrations and tritiated 8-hydroxy-2-dipropylaminotctralin (8-OH-DPAT, final concentration 0.2 nM) were added to the synaptosome suspension, and each mixture was reacted at 37° C. for 12 minutes. After the reaction, the reaction mixture was filtered with suction through a Whatman GF/B glass filter. The filter was washed with 50 mM Tris-HCl buffer (pH 7.7), and the radioactivity of the filter was measured by a liquid scintillation counter. Non-specific binding was determined in the presence of 10^-5 M serotonin (5HT). The concentration necessary for 50% inhibition (IC50) was determined on a graph, and inhibition constant (Ki value) was calculated.

In data set [2] the target is T3, serotonin 2 (5-HT2) receptor (Rattus norvegicus, UniProt P14842).
T3 construct: A crude synaptosome fraction was separated from hippocampus; from tissue; host or cells: hippocampus of Wistar rat, crude synaptosome fraction
The experiment in a line: Affinity for serotonin 2 receptor ([3H]ketanserin binding, crude synaptosome fraction of hippocampus). On the set-up: species or system Wistar rat. The following applies: tritiated ketanserin 0.2 nM, pH 7.7, 37° C., 20 minutes, read-out: binding 5-HT2, inhibition constant (Ki value). On the procedure:
Experiment Example 3: Affinity for serotonin 2 receptor
A specific binding of serotonin 2 (5-HT2) receptor was tested according to the method described in Mol. Pharmacol. 21, 301 (1981).
A crude synaptosome fraction was separated from hippocampus of 9-10 weeks old Wistar rat, and suspended in 50 mM Tris-HCl buffer (pH 7.7) for use in the test. The test compound at several concentrations and tritiated ketanserin (final concentration 0.2 nM) were added to the synaptosome suspension, and each mixture was incubated at 37° C. for 20 minutes. After the incubation, the mixture was filtered with suction through a Whatman GF/B glass filter. The filter was washed with 50 mM Tris-HCl buffer (plt 7.7), and the radioactivity of the filter was measured by a liquid scintillation counter. Non-specific binding was determined in the presence of 10^-5 M mianserin. The concentration necessary for 50% inhibition (IC50) was determined on a graph, and inhibition constant (Ki value) was calculated.

The subject of the next data set is apomorphine. The experiment in a line: Anti-apomorphine action (mouse). It counts as in vivo. The following applies: 1 h before apomorphine, read-out: anti-apomorphine effect ED50. On the procedure: The test compound was orally administered to the mice, and 60 minutes later, 0.5 mg/kg of apomorphine hydrochloride was subcutaneously administered. The movement for 20 minutes from immediately after the administration was measured using Balimex (Columbus, USA).

The test system of a further data set is ddY mice. The experiment in a line: Acute toxicity. It counts as in vivo. The following applies: 5 days.

Read-outs that look alike come from different tables or passages of the source.

T3 sequence (P14842 whole entry): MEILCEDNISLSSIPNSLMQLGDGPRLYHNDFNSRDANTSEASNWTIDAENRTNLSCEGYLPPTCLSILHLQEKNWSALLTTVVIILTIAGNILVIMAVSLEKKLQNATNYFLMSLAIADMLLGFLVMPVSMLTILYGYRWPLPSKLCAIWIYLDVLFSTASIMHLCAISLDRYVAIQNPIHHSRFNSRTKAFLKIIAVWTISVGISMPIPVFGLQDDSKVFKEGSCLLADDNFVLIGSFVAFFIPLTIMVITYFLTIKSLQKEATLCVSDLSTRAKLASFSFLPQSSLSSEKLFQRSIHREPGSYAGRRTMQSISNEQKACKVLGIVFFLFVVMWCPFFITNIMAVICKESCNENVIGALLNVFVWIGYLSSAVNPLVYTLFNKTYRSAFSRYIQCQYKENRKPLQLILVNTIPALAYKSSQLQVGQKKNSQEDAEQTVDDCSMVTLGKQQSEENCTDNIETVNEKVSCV
T1 sequence (P61169 whole entry): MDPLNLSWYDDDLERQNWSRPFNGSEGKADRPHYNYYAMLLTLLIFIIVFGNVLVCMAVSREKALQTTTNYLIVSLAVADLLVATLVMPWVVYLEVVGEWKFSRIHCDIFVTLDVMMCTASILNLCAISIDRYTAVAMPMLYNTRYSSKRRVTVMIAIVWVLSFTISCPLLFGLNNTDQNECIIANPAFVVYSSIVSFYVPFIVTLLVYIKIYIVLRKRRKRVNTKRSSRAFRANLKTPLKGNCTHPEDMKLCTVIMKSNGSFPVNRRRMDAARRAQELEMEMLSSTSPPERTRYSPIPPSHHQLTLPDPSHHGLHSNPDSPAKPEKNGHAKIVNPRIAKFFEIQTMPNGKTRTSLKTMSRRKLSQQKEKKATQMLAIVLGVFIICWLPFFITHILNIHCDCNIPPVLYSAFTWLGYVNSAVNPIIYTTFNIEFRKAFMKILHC

For orientation: Ki means the dissociation constant of the complex between target and ligand, obtained from inhibition or displacement. By ED50 is commonly meant the dose that gives a 50% effect, or the effect in half of the subjects. In the case of `CC(=O)NCCc1ccc(CCN2CCC(c3noc4cc(F)ccc34)CC2)s1` [Example 158, 3-(1-(2-(5-(2-acetylaminoethyl)-2-thienyl)ethyl)piperidin-4-yl) -6-fluoro-1,2-benzisoxazole], the inhibition constant (Ki) is 0.94 nM on dopamine 2 (D2) receptor, 16 nM in data set [1] and 0.13 nM in data set [2]. Besides, the median effective dose (ED50) with apomorphine (po) came to 0.14 mg/kg.

Regarding `CC(=O)NCCc1sc(CCN2CCC(c3noc4cc(F)ccc34)CC2)cc1Br` [Example 159, 3-(1-(2-(5-(2-acetylaminoethyl)-4-bromo-2-thienyl)ethyl)-piperidin-4-yl) -6-fluoro-1,2-benzisoxazole], the Ki came to 0.5 nM on dopamine 2 (D2) receptor, 12 nM in data set [1] and 0.047 nM in data set [2]. The 50% effective dose (ED50) with apomorphine (po) was determined as 0.53 mg/kg.

On to `CC(=O)NCc1sc(CCN2CCC(c3noc4cc(F)ccc34)CC2)cc1C` [Example 151, 3-(1-(2-(5-acetylaminomethyl-4-methyl-2-thienyl)ethyl)-piperadin-4-yl)-6-fluoro-1,2-benzisoxazole], for which the Ki amounted to 3.8 nM on dopamine 2 (D2) receptor, 15 nM in data set [1] and 0.099 nM in data set [2]. Besides, the ED50 in the data set on apomorphine (male dd mice, oral, 60 minutes before 0.5 mg/kg s.c. apomorphine hydrochloride, movement for 20 minutes) stood at 0.76 mg/kg.

For the compound `CC(=O)NCc1ccc(CCCCN2CCC(c3noc4cc(F)ccc34)CC2)s1` [Example 108, 3-(1-(4-(5-acetylaminomethyl-2-thienyl)butyl)piperidin-4-yl) -6-fluoro-1,2-benzisoxazole], the Ki on dopamine 2 (D2) receptor amounted to 2 nM; in data set [1], 56 nM; in data set [2], 2.1 nM. The 50% effective dose (ED50) in the data set with apomorphine (po) is 0.41 mg/kg.

As to `CC(=O)c1ccc(SCCCN2CCN(c3cccc(C)c3C)CC2)s1` [Example 4, 1(3-((5-acetyl-2-thienyl)thio)propyl)-4-(2,3-dimethylphenyl)piperazine], the death entry was “No death was observed” in the data set with ddY mice (100 mg/kg intraperitoneally, 5 male ddY mice) and “no death was observed” with ddY mice (300 mg/kg orally).

In the case of `CC(=O)NCc1ccc(SCCCN2CCC(c3noc4cc(F)ccc34)CC2)s1` [Example 93, 3-(1-(3-((5-acetylaminomethyl-2-thienyl)thio)propyl)-piperidin-4-yl)-6-fluoro-1,2-benzisoxazole], the Ki on dopamine 2 (D2) receptor turned out to be 0.8 nM; in data set [1] it was 26 nM; in data set [2], 0.79 nM. Moreover, in the data set on apomorphine (po), the ED50 came to 2.9 mg/kg.

For `CC(=O)c1ccc(SCCCN2CCC(c3noc4cc(F)ccc34)CC2)s1` [Example 36, 3-(1-(3-((5-acctyl-2-thienyl)thio)propyl)piperidin-4-yl)-6-fluoro-1,2-benzisoxazole], the inhibition constant Ki on dopamine 2 (D2) receptor was 0.61 nM; in data set [1] it was 0.75 nM; in data set [2], 1.3 nM. Besides, in the data set on apomorphine (po), the median effective dose (ED50) was 3.4 mg/kg.

On to `CC(=O)NCc1cc(CCN2CCC(c3noc4cc(F)ccc34)CC2)c(C)s1` [Example 155, 3-(1-(2-(5-acetylaminomethyl-2-methyl-3-thienyl)ethyl)-piperidin-4-yl)-6-fluoro-1,2-benzisoxazole], for which the inhibition constant Ki on dopamine 2 (D2) receptor was 1.4 nM; in data set [1] it was greater than 100 nM; in data set [2], 0.37 nM. In the data set on apomorphine (po), the ED50 stood at 1.2 mg/kg.

For the compound `CC(=O)Nc1ccc(SCCCN2CCC(c3noc4cc(F)ccc34)CC2)s1` [Example 40, 3-(1-(3-((5-acetylamino-2-thienyl)thio)propyl)piperidin-4-yl) -6-fluoro-1,2-benzisoxazole], the Ki came to 0.71 nM on dopamine 2 (D2) receptor, 0.35 nM in data set [1] and 0.45 nM in data set [2]. Besides, in the data set on apomorphine (po), the median effective dose (ED50) was found to be 1 mg/kg.

For `CC(=O)NCc1ccc(C(=O)CCCN2CCC(c3noc4cc(F)ccc34)CC2)s1` [Example 95, 3-(1-(4-(5-acetylaminomethyl-2-thienyl)-4-oxobutyl)piperidin-4-yl)-6-fluoro-1,2-benzisoxazole], the inhibition constant Ki at dopamine 2 (D2) receptor was 2.5 nM; in data set [1] it was 140 nM; in data set [2], 0.059 nM. The 50% effective dose (ED50) in the data set on apomorphine (po) was determined as 2.6 mg/kg.

In the case of `CC(=O)c1ccc(SCCCN2CCN(c3nsc4ccccc34)CC2)s1` [Example 21, 3-(4-(3-((5-acctyl-2-thicnyl)thio)propyl)-l-piperadinyl)1,2-benzisothiazole], the inhibition constant (Ki) on dopamine 2 (D2) receptor stood at 1.3 nM; in data set [1] it was 0.12 nM; in data set [2], 0.59 nM. Also, the ED50 with apomorphine (po) came out at 35 mg/kg.

For `CC(=O)NCc1ccc(CCN2CCC(c3noc4cc(F)ccc34)CC2)s1` [Example 119, 3-(1-(2-(5-acetylaminomethyl-2-thicnyl)ethyl)piperidin-4-yl)-6-fluoro-1,2-benzisoxazole], the inhibition constant (Ki) on dopamine 2 (D2) receptor was determined as 3.8 nM; in data set [1], 14 nM; in data set [2], 0.65 nM. The ED50 in the data set with apomorphine (po) worked out at 0.16 mg/kg.

As for `NCc1ccc(CCCCN2CCC(c3noc4cc(F)ccc34)CC2)s1` [Example 165, 3-(1-(4-(5-aminomethyl-2-thienyl)butyl)piperidin-4-yl)-6-fluoro-1,2-benzisoxazole], the Ki worked out at 0.69 nM at dopamine 2 (D2) receptor, 1.7 nM in data set [1] and 1.3 nM in data set [2]. Moreover, the median effective dose (ED50) in the data set with apomorphine (po) is 0.24 mg/kg.
